Common to all, as to type: functional
Assay [1] has as its system Digitaria sanguinalis. In words: Herbicidal activity against Digitaria sanguinalis (hairy crabgrass) assessed as inhibition of plant growth at 93.75 g/ha applied as pre-emergence treatment. As to conditions: for inhibition at 93.75 g/ha: Digitaria sanguinalis, pre-emergence.
Assay [2] concerns Echinochloa crus-galli. In words: Herbicidal activity against Echinochloa crus-galli (barnyard grass) assessed as inhibition of plant growth at 375 g/ha applied as pre-emergence treatment. As to conditions: for inhibition at 375 g/ha: Echinochloa crus-galli, pre-emergence.
Assay [3] deals with Digitaria sanguinalis. As to the kind of experiment: Herbicidal activity against Digitaria sanguinalis (hairy crabgrass) assessed as inhibition of plant growth at 187.5 g/ha applied as pre-emergence treatment. The note with it: for inhibition at 187.5 g/ha: Digitaria sanguinalis, pre-emergence.
The test system of assay [4] is Echinochloa crus-galli. In words: Herbicidal activity against Echinochloa crus-galli (barnyard grass) assessed as inhibition of plant growth at 93.75 g/ha applied as pre-emergence treatment. The note with it: for inhibition at 93.75 g/ha: Echinochloa crus-galli, pre-emergence.
The test system of assay [5] is Echinochloa crus-galli. In words: Herbicidal activity against Echinochloa crus-galli (barnyard grass) assessed as inhibition of plant growth at 750 g/ha applied as pre-emergence treatment. As to conditions: for inhibition at 750 g/ha: Echinochloa crus-galli, pre-emergence.
In assay [6] the test system is Echinochloa crus-galli. As to the kind of experiment: Herbicidal activity against Echinochloa crus-galli (barnyard grass) assessed as inhibition of plant growth at 187.5 g/ha applied as pre-emergence treatment. As to conditions: for inhibition at 187.5 g/ha: Echinochloa crus-galli, pre-emergence.
In assay [7] the test system is Digitaria sanguinalis. As to the kind of experiment: Herbicidal activity against Digitaria sanguinalis (hairy crabgrass) assessed as inhibition of plant growth at 750 g/ha applied as pre-emergence treatment. The note with it: for inhibition at 750 g/ha: Digitaria sanguinalis, pre-emergence.
In assay [8] the test system is Digitaria sanguinalis. In words: Herbicidal activity against Digitaria sanguinalis (hairy crabgrass) assessed as inhibition of plant growth at 375 g/ha applied as pre-emergence treatment. As to conditions: for inhibition at 375 g/ha: Digitaria sanguinalis, pre-emergence.
The test system of assay [9] is Echinochloa crus-galli. As to the kind of experiment: Herbicidal activity against Echinochloa crus-galli (barnyard grass) assessed as inhibition of plant growth at 10 ug/mL by cup test.

We go through five compounds from ChEMBL document CHEMBL3045542, “A quantitative structure-activity relationship study of herbicidal analogues of alpha-hydroxy-substituted 3-benzylidenepyrrolidene-2,4-diones” (2006).

The inhibition is the drop in the measured response relative to a control, in per cent.

Consider `C=CCOc1ccc(/C(O)=C2\C(=O)CN(C(C)C)C2=O)cc1`, for which the inhibition at 93.75 g/ha turned out to be 0% in [1] and 30% in [4]. For the same compound, the figures for the inhibition at 375 g/ha in assay [2] and in assay [8] were 95% and 74%, respectively. In addition, the values for the inhibition at 187.5 g/ha in assay [3] and in assay [6] were 36% and 55%, respectively. Besides, the inhibition at 750 g/ha in [5] is 100%; in assay [7], 79%. Moreover, the inhibition at 10 µg/mL in assay [9] was 78%.

Regarding `CCOc1ccc(/C(O)=C2\C(=O)CN(C(C)CC)C2=O)cc1` (stereo not given), the inhibition at 93.75 g/ha in [1] came out at 18%; in assay [4], 7%. Also, the figures for the inhibition at 375 g/ha in [2] and in [8] were 82% and 59%, respectively. The inhibition at 187.5 g/ha in [3] is 41%; in assay [6], 28%. Further, the inhibition at 750 g/ha in assay [5] stood at 93%; in assay [7], 96%. In addition, the inhibition at 10 µg/mL in assay [9] was 78%.

As for `CCC(C)N1CC(=O)/C(=C(/O)c2ccc(OC)cc2OC)C1=O` (stereo not given), the results for the inhibition at 93.75 g/ha in assay [1] and in assay [4] were 0% and 13%, respectively. Besides, the inhibition at 375 g/ha was determined as 76% in assay [2] and 63% in assay [8]. In addition, the inhibition at 187.5 g/ha came out at 4% in assay [3] and 14% in assay [6]. In addition, the inhibition at 750 g/ha in assay [5] was determined as 100%; in assay [7], 80%. In addition, in [9], the inhibition at 10 µg/mL turned out to be 79%.

For `COc1ccc(/C(O)=C2\C(=O)CN(C(C)C)C2=O)c(OC)c1`, the “inhibition (INH)” value in assay [1] was found to be 20%; in assay [2], 94%; in assay [3] it was 84%; in [4], 10%; in assay [5], 99%; in assay [6] it was 56%. In addition, the “inhibition (INH)” value in assay [7] and in assay [8] was 95% each time. In assay [9], the inhibition at 10 µg/mL was determined as 78%.

With `CCOc1ccc(/C(O)=C2\C(=O)CN(C(C)C)C2=O)cc1`, the “inhibition (INH)” value in assay [1] was 5%; in assay [2] it was 100%; in assay [3], 66%; in assay [4], 36%; in assay [5], 100%; in assay [6], 95%. Moreover, the “inhibition (INH)” value in assay [7] turned out to be 93%; in [8], 77%. Further, the inhibition at 10 µg/mL in assay [9] is 79%.
